In US20240270762A1, “PENICILLIN-BINDING PROTEIN INHIBITORS” (priority 2021, published 2024) one finds MIC data, which are given here for two compounds.

Values after ≈ are worked out from the molar mass of the structure shown.

What all share (format): cell-based
Test [1] concerns P. aeruginosa CDC-0110. The experiment in a line: microbe, parasite or virus in culture. Particulars: Pseudomonas aeruginosa, CDC0110, read-out: Minimum inhibitory concentration, P. aeruginosa CDC-0110.
Test [2] relates to P. aeruginosa CDC-0054. The experiment in a line: microbe, parasite or virus in culture. The settings on record: Pseudomonas aeruginosa, CDC0054, read-out: Minimum inhibitory concentration, P. aeruginosa CDC-0054.
The subject of test [3] is P. aeruginosa ATCC 27853. The experiment in a line: microbe, parasite or virus in culture. The settings on record: Pseudomonas aeruginosa, ATCC27853, read-out: Minimum inhibitory concentration, P. aeruginosa ATCC 27853.
Test [4] has as its system B. thailandensis ATCC 700388. The experiment in a line: microbe, parasite or virus in culture. The settings on record: Burkholderia thailandensis, ATCC700388, read-out: Minimum inhibitory concentration (MIC), B. thailandensis ATCC 700388.
The test system of test [5] is P. aeruginosa (ΔmexAB-oprM). The experiment in a line: Broth microdilution MIC in iron-depleted CAMHB (IDM). Particulars: Pseudomonas aeruginosa; iron-depleted CAMHB (IDM); […]; read-out: Minimum inhibitory concentration, P. aeruginosa ΔmexAB-oprM. For orientation: Broth dilution looks for growth in wells or tubes with falling amounts of substance.
For test [6], the system named is P. aeruginosa CDC-0095. The experiment in a line: microbe, parasite or virus in culture. The settings on record: Pseudomonas aeruginosa, CDC0095, read-out: Minimum inhibitory concentration, P. aeruginosa CDC-0095.
In test [7] the test system is P. aeruginosa CDC-0090. The experiment in a line: microbe, parasite or virus in culture. Particulars: Pseudomonas aeruginosa, CDC0090, read-out: Minimum inhibitory concentration, P. aeruginosa CDC-0090.
Test [8] has as its system P. aeruginosa ATCC 35151. The experiment in a line: microbe, parasite or virus in culture. The settings on record: Pseudomonas aeruginosa, ATCC35151, read-out: Minimum inhibitory concentration, P. aeruginosa ATCC 35151.

Take `O=C(O)c1c(F)ccc2c1OB(O)[C@@H](NC(=O)[C@H](NC(=O)N1CCN(C3CCN(S(=O)(=O)c4ccc5[nH]nnc5c4)CC3)C1=O)c1cc(F)c(O)c(O)c1F)C2` [Example 622, (R)-3-((R)-2-(3-(1-((1H-benzo[d][1,2,3]triazol-5-yl)sulfonyl)piperidin-4-yl)-2-oxoimidazolidine-1-carboxamido)-2-(2,5-difluoro-3,4-dihydroxyphenyl)acetamido)-7-fluoro-2-hydroxy-3,4-dihydro-2H-benzo[e][1,2]oxaborinine-8-carboxylic acid]: the MIC in test [1] was below 1 µg/mL; in test [2] it was below 1 µg/mL; in test [3] it was 2 to 4 µg/mL (≈ 2.49 to 4.98 µM); in test [4] it was 2 to 4 µg/mL (≈ 2.49 to 4.98 µM); in test [5], below 1 µg/mL; in test [6], 2 to 4 µg/mL (≈ 2.49 to 4.98 µM). The MIC in test [7] and in test [8] was below 1 µg/mL throughout.
On to `O=C(O)c1c(F)ccc2c1OB(O)[C@@H](NC(=O)[C@H](NC(=O)N1CCN(C3CCN(C(=O)c4cc(O)cc(O)c4)CC3)C1=O)c1cc(F)c(O)c(O)c1F)C2` [Example 623, (R)-3-((R)-2-(2,5-difluoro-3,4-dihydroxyphenyl)-2-(3-(1-(3,5-dihydroxybenzoyl)piperidin-4-yl)-2-oxoimidazolidine-1-carboxamido)acetamido)-7-fluoro-2-hydroxy-3,4-dihydro-2H-benzo[e][1,2]oxaborinine-8-carboxylic acid], for which the MIC in test [1], in test [2], in test [3], in test [4], in test [5] and in test [6] was below 1 µg/mL in each case. Also, the MIC in test [7] and in test [8] was below 1 µg/mL each time.
